The values below come from US11987579B2 (Duke University, priority 2018, dated 2024).

Common to all, as to format: cell-based
In test [1] the test system is Fzd1-GFP. As to the kind of experiment: Frizzled 1-GFP (Fzd1-GFP) internalization assay. To be noted: 12.5 μM, 6 h, 37° C., U20S cells stably expressing Fzd1-GFP, confocal microscopy, vs DMSO. Here is the method:
The Frizzled 1-GFP (Fzd1-GFP) assay was performed following a procedure similar to that previously reported (Chen et al., Biochemistry 2009, 48, 10267). Briefly, U20S cells stably expressing Fzd1-GFP were plated in con local dishes and incubated at 37° C. with 5% CO2. After 24 hours the cells were treated with 12.5 μM of test compound (dissolved in DMSO) or DMSO alone in media as a control for 6 hours at 37° C. and then fixed with 4% paraformaldehyde. The cells were then examined by microscopy using an LSM 510-Meta confocal microscope (Carl Zeiss, Thornwood, N.Y., USA) equipped with 40× and 100×apo chromat objectives. GFP was excited using a 488-nm argon laser line. Images were processed using the LSM software Image Browser.

Test [2] concerns Wnt/β-catenin target gene protein levels. As to the kind of experiment: Evaluation of Wnt signaling inhibition by Western blot. The settings on record: 5 μM, 18 h; HCT116, SW-480 and CRC240 cells. The method, then: All cells were plated in 6 well-plates and allowed to attach overnight in a 5% CO2 incubator at 37° C. to reach 50-70 percent confluency. The cells were then treated with the indicated compound for 18 hours. Whole cell lysates were prepared by adding 200 μL 1.5× Laemmli sample buffer. Cytosolic lysates were prepared by treating cells with hypotonic buffer and dispersing cell aggregates by drawing the lysate buffer in and out a syringe equipped with 25G×1 needles. The cytosolic lysate was centrifuged at 15,000 rpm for 120 minutes, 200 μL of cytosol lysate was collected and 67 μL of 4× Laemmli sample buffer was added. Whole cell lysates were subjected to Western blot analysis using antibodies to c-Myc (Santa Cruz Biotechnology, catalog number SC-40), Cyclin D1 (Cell Signaling Technology, catalog number 2978), and Survivin (Cell Signaling Technology, catalog number 2808). Cytosol lysate were subjected to Western blot analysis using antibodies to β-catenin (Santa Cruz Biotechnology SC-7963) and Axin2 (Cell Signaling Technology, catalog number 2151). An antibody to β-actin (Santa Cruz Biotechnology, catalog number SC-47798) was used as a loading control.
In general terms: In western blotting, separated proteins are transferred to a membrane and probed.

Test [3] has as its system CCD841Co colonic cells. Put plainly: Assessment of oxygen consumption rate (OCR), Seahorse XFp. The settings on record: 1 μM, CCD841Co cells, basal conditions, vs DMSO. The method, then:
Colonic epithelial CCD841Co cells were plated in Seahorse XFp 8-well miniplates at 8000 cells/well and allowed to attach overnight at 37° C. in a 5% CO2 incubator. Polarographic analysis of OCR was performed using Seahorse XF Analyzer (Agilent Technologies, Santa Clara, Calif.) and a Seahorse XFp Cell Mito Stress Test Kit (Agilent Technologies, catalog number 103010-100). […] Data were analyzed by the software Wave (Version 2.3.0.20, Agilent Technologies, Santa Clara, Calif.).

Test [4] relates to pAMPK. As to the kind of experiment: Evaluation of phospho-AMPK levels by Western blot. The settings on record: CCD841Co cells, whole cell lysate, vs DMSO control. The method, then: 12-well plates were incubated with 250 μL poly-D-lysine solution (Sigma, catalog number P6407) at 10 μg/mL for 30 minutes at room, temperature, the poly-D-lysine solution was removed, and the wells washed twice with 500 μL distilled water. Colonic epithelial CCD841Co cells were cultured in MEM medium plus 1 mM sodium pyruvate (Invitrogen, catalog number 11360070), lx MEM Non-Essential Amino Acids (Gibco catalog number 11140), 10% FBS, and 100 U/ml penicillinstreptomycin. 0.27 million CCD841Co cells per well were plated in culture medium in the poly-Dlysine coated 12-well plates and allowed to attach overnight at 37° C. in a 5% CO2 incubator. The next morning, the media was replaced with DMSO vehicle in cell media, DK419 or niclosamidein DMSO diluted to the indicated concentration with DMEM medium (Sigma, catalog number D5030) supplemented with 2 mM sodium pyruvate and 2 mM L-glutamine (Invitrogen, catalog number 25030081). […] After 30 minutes treatment, the media was removed and the cells were lysed with 120 μL 1×Laemmii sample buffer. Immunoblots of the cell lysates using antibodies to phospho-AMPK (pAMPK) (Cell Signaling Technology, catalog number 2535) and AMPK (Cell Signaling Technology, catalog number 2532) was used to detect phosphorylated AMPK ([…]) levels and total AMPK levels, respectively. Antibodies to β-actin were used as loading controls.

Test [5] has as its system SW948. Put plainly: Inhibition of cell proliferation by MTS assay, SW948. To be noted: Homo sapiens; SW948, MTS assay at 72 hr. Here is the method: (§1) Colon cancer cell lines SW948, HT-29, HCT116, CRC240, SW480, and DLD-1 were used in the cell proliferation assay. All cell lines, except CRC240, were from ATCC. CRC240, a colorectal cancer patient derived xenograft (PDX) cell line, was obtained from the Hsu lab (Duke University). Generation of CRC240 cell line was previously reported. SW948 cells were cultured in Leibovitz's medium (Gibco, catalog number 21083-027). HT-29 and HCT116 cells were cultured in McCoy's 5A medium (Gibco, catalog number 16600-082). SW480 cells were cultured in MEM medium. CRC240 and DLD-1 cells were cultured in RPMI medium (Gibco, catalog number 11875-093). All media were supplemented with 10% FBS and 100 U/ml penicillin-streptomycin. […] IC50 values calculated using Graphpad Prism.
For orientation: Formazan colour is commonly taken as a measure of viable cells.

Test [6] relates to HCT116. As to the kind of experiment: Inhibition of cell proliferation by MTS assay, HCT116. To be noted: Homo sapiens, HCT-116; HCT116, MTS assay at 72 hr. Here is the method: as §1
Test [7] relates to CRC240. Put plainly: Inhibition of cell proliferation by MTS assay, CRC240. To be noted: Homo sapiens; CRC240, MTS assay at 72 hr. Here is the method: as §1
Test [8] relates to SW480. Put plainly: Inhibition of cell proliferation by MTS assay, SW480. The settings on record: Homo sapiens; SW480, MTS assay at 72 hr. The method, then: as §1
The test system of test [9] is DLD-1. Put plainly: Inhibition of cell proliferation by MTS assay, DLD-1. To be noted: Homo sapiens; DLD-1, MTS assay at 72 hr. The method, then: as §1
Test [10] deals with six CRC tumor cell lines. Put plainly: MTS assay, summary over six CRC tumor cell lines. To be noted: read-out: IC50 values, range over the six CRC cell lines. Here is the method:
as §1

The IC50 is the concentration that gives 50% inhibition. Take `O=C(Nc1ccc(C(F)(F)F)cc1)c1cc(Cl)cc2nc(C(F)(F)F)[nH]c12` [DK419, 6-chloro-2-(trifluoromethyl)-N-(4-(trifluoromethyl)phenyl)-1H-benzo[d]imidazole-4-carboxamide]: in test [1], the “Fzd1-GFP receptor internalization (green fluorescent internal puncta)” value was “robust punctate pattern”. Also, the “levels of Axin2, β-catenin, c-Myc, Cyclin D1 and Survivin by Western blot” value in [2] is “reduced levels”. The oxygen consumption rate result in test [3] is given as “increases the rate of oxygen consumption”. For the same compound, in [4], the “pAMPK levels by Western blot” value was “increased the levels of pAMPK”. For the same compound, the IC50 in test [5] was 40 nM; in test [6], 230 nM; in test [7] it was 310 nM; in [8] it was 320 nM; in [9] it was 350 nM; in test [10] it was 40 to 350 nM.

On to `O=C(Nc1ccc([N+](=O)[O-])cc1Cl)c1cc(Cl)ccc1O` [Niclosamide, reference compound], for which the “Fzd1-GFP receptor internalization (green fluorescent internal puncta)” value in [1] is reported as “robust punctate pattern”. The “levels of Axin2, β-catenin, c-Myc, Cyclin D1 and Survivin by Western blot” value in test [2] was “reduced levels”. For the same compound, the oxygen consumption rate result in test [3] is listed as “increases the oxygen consumption rate”. The “pAMPK levels by Western blot” value in test [4] is listed as “increased pAMPK levels”. The IC50 is 100 nM in [5]; 310 nM in test [6]; 680 nM in test [7]; 740 nM in test [8]; 1780 nM in test [9]; 100 to 1780 nM in [10].
